Experimental data as given in PMC10377601, “Side Chain-Modified Benzothiazinone Derivatives with Anti-Mycobacterial Activity” (Biomedicines, 2023).
≈ marks a conversion by molar mass, not a printed value.

How the values were obtained:
physchem = conditions: pH 7.4, aqueous buffer, kinetic from dmso stock
M. tuberculosis H37Rv [1] = test: In vivo efficacy, mouse model acutely infected with Mtb H37Rv, lung CFU; conditions: BALB/C mice, oral 50 mg/kg once per day for 4 weeks except weekends
M. tuberculosis H37Rv [2] = test: [14C]-acetate metabolic labeling, TLC analysis of lipids; format: cell-based; conditions: Mtb H37Rv, 10 × MIC, 100 × MIC, 24 h, compared to control bacteria
[3] = test system: Mycobacterium tuberculosis; design: method as in PMID 24500695; conditions: whole-cell activity; cited from earlier work
M. tuberculosis H37Rv [4] = test: MIC determination by microplate alamar blue assay (MABA); format: cell-based; conditions: Mycobacterium tuberculosis
[5] = Pharmacokinetic study in mice; format: in vivo; conditions: male, ICR, mouse, plasma; for clearance: read-out: Clint (hepatic clearance) (converted); for bioavailability: oral, p.o. 10 mg/kg vs i.v. 2 mg/kg, read-out: F (oral bioavailability)
Text: Animal Care and Welfare Committee of Shanghai Institute of Materia Medica, Chinese Academy of Sciences approved all animal protocols. All animal programs are in compliance with the Guide for the Care and Use of Laboratory Animals issued by Shanghai Association on Laboratory Animal Care (SALAC). SPF male ICR mice weighing 25–27 g were divided into two groups, three mice in each group. The tested compounds were administrated via oral and intravenous injection, separately. […] The compound was co-dissolved by using 0.5% carboxymethyl cellulose for p.o. administration, and 10% DMSO/40%PEG400/40% water was used for i.v. administration, respectively. After oral dosing or i.v. administration, the blood was sampled at 5, 15, 30 min, and 1, 2, 4, 7, and 24 h. The sample plasma was harvested and stored at −80 °C for analysis. Based on noncompartmental analysis (Pharsight Corporation, Sunnyvale, CA, USA), the pharmacokinetic data were analyzed using WinNonlin software version 6.3.

in vitro = in vitro ADME; design: dose or concentration left out as unconfirmed; conditions: human, microsomes, pH 7.4
Experimental: The compounds’ metabolic stability were determined in human liver microsomes. A solution of microsomes (0.2 mg/mL) containing the compounds […], NADPH (1 mM), and phosphate buffer (100 mM, pH 7.4) were prepared. Pre-incubation was conducted at 37 °C for 10 min. There was addition of 50 µL and 5 mM NADPH to initiate the reaction. At 5, 15, 30, 60, or 120 min, 30 µL of reaction solution was taken out and quenched with 300 µL internal standard tolbutamide (10 ng/mL) in cold CH3CN. The mixture was centrifuged at 6000 rpm for 15 min at 4 °C. Then, 100 μL supernatant was diluted with 100 uL ultrapure water (Millipore, ZMQS50F01). The solution was analyzed via LC/MS analysis.

[6] = Kinetic solubility in PBS; conditions: pH 7.4, aqueous buffer, kinetic from dmso stock
E. coli = test: Inhibitory potency against E. coli; format: cell-based; conditions: at 16 µg/mL
HepG2 cell = test: Cytotoxicity against HepG2 cell, MTT assay; format: cell-based; conditions: at a concentration lower than 1.0 μg/mL
Experimental: (§1) HepG2 cells we r e obtained from the Chinese Type Culture Collection (Shanghai, China) and maintained in Dulbecco’s modiﬁed eagle medium (Gibco; #C11995500BT) con‐ taining 1% (v/v) penicillin/streptomycin (Beyotime; #C0222) and 10% (v/v) fetal bovine se‐ rum (Gibco; #GB10270106) in an atmosphere of 5% CO2 at 37 °C. HepG2 cells we r e seeded into 96‐we l l plates at a density of 5,000 cells/well (100 µL total volume) and treated with diﬀerent concentrations of compound 2 and 37 (0, 0.025, 0.2, 1, 5, and 10 µg/mL). After 24 h the medium wa s removed and the cells we r e incubated in a fresh medium containing 5 mg/mL MTT for 4 h. The medium wa s then removed and the precipitated formazan wa s dissolved in 100 µL of DMSO followed by shaking for 10 min. Finally, the absorbance at 570 nm wa s measured on a microplate spectrophotometer. Each treatment wa s performed […]
(§2) Figure S1. Inhibitory activity of compounds 2 and 37 against HepG2 cell. […]

[7] = Cytotoxicity against HepG2 cell, MTT assay; format: cell-based; conditions: human, HepG2 cells, at 5.0 μg/mL, 24 h
Experimental: as §1, §2

[8] = biological target: T1, recombinant M. tuberculosis DprE1 enzyme (Mycobacterium tuberculosis, UniProt P9WJF1); test: DprE1 inhibition, Amplex Red/peroxidase coupled assay; format: biochemical; conditions: Mtb DprE1
T1 construct: made in house; host or cells: E. coli
T1 sequence (P9WJF1 whole entry): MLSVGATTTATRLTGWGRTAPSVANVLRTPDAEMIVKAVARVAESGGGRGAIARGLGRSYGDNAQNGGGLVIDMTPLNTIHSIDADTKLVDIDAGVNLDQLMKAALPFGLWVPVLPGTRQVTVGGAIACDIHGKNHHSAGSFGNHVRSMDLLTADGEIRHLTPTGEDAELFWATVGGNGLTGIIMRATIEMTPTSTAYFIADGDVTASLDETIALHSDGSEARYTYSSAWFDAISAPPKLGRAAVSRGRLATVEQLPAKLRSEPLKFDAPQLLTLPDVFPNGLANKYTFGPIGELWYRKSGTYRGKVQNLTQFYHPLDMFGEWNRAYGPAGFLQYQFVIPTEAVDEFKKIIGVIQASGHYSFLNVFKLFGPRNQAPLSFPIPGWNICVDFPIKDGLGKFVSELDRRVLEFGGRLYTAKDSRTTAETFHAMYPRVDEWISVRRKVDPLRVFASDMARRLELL

Row | Structure (SMILES) | Reduction of bacteria load in the lungs compared to the control group (M. tuberculosis H37Rv [1]) | Lipid profile after [14C]-acetate labeling (M. tuberculosis H37Rv [2]) | MIC (M. tuberculosis H37Rv [4]; Mtb H37Rv, MABA) [nM] | AUC ([5]; IV 2 mg/kg) [ng·h/mL] | Cmax ([5]; IV 2 mg/kg) [ng/mL] | MRT ([5]; IV 2 mg/kg) [h] | half-life ([5]; IV 2 mg/kg) [h] | clearance ([5]; IV 2 mg/kg) [mL/min/kg] | AUC ([5]; PO 10 mg/kg) [ng·h/mL] | Cmax ([5]; PO 10 mg/kg) [ng/mL] | MRT ([5]; PO 10 mg/kg) [h] | half-life ([5]; PO 10 mg/kg) [h] | bioavailability [5] [%] | CLint scaled (in vitro) [mL/min/kg] | half-life (in vitro) [h] | solubility at 4 h [6] [µg/mL] | Inhibitory potency against E. coli (E. coli) | Inhibition of HepG2 cell viability (HepG2 cell) | viability at 24 h, 5 μg/mL [7] [%] | IC50 [8] [nM] | also measured
1 | O=c1nc(N2CCN(CC3CCCCC3)CC2)sc2c([N+](=O)[O-])cc(C(F)(F)F)cc12 [PBTZ169, reference compound] | 3 logs | accumulated trehalose monomycolates (TMM) and trehalose dimycolates (TDM) | < 4 | – | – | – | – | – | – | – | – | – | – | – | – | – | – | – | – | – | solubility at 4 h (physchem): < 0.011 µg/mL; minimal inhibitory concentration (MIC) [3]: lower than 0.004 µM; MIC (M. tuberculosis H37Rv [4]; H37Rv, Table S1): 0.2 ng/mL
2 | CN(Cc1nnc(-c2ccccc2)o1)c1nc(=O)c2cc(C(F)(F)F)cc([N+](=O)[O-])c2s1 [Compound 37, 2-{methyl[(5-phenyl-1,3,4-oxadiazol-2-yl)methyl]amino}-BTZ] | 1.2 logs | accumulated trehalose monomycolates (TMM) and trehalose dimycolates (TDM) | 6 | 528 | 1860 | 0.4 | 0.3 | 64 | 1870 | 1890 | 0.9 | 0.6 | 70.6 | 25.5 | 1.14 | 0.25 (≈ 0.539 µM) | no obvious activity | No inhibition of cell viability | 72 to 75 | 20 to 750 | –
3 | CN(Cc1cn(-c2ccccc2)nn1)c1nc(=O)c2cc(C(F)(F)F)cc([N+](=O)[O-])c2s1 [Compound 2, 2-{methyl[(1-phenyl-1H-1,2,3-triazol-4-yl)methyl]amino}-BTZ] | barely displayed efficacy | accumulated trehalose monomycolates (TMM) and trehalose dimycolates (TDM) | 9 | 1210 | 1250 | 1.5 | 1.1 | 27.8 | 2190 | 1800 | 2 | 1.3 | 35.7 | 17.3 | 1.67 | 0.13 (≈ 0.281 µM) | no obvious activity | No inhibition of cell viability | 72 to 75 | 20 to 750 | MIC (M. tuberculosis H37Rv [4]; 168 h, Mtb H37Rv, MABA): 9 nM
